According to patent publication US20160235727A1, “NOVEL PYRROLIDINE DERIVED BETA 3 ADRENERGIC RECEPTOR AGONISTS” (Merck Sharp & Dohme Corp., priority 2013, published 2016):

Biological target: T1, human β3-AR (Homo sapiens, UniProt P13945)
T1 construct: expressed in transfected cells; host or cells: CHO (Chinese hamster ovary) cells, stably transfected
Test: cAMP functional agonist assay (LANCE TR-FRET) in CHO cells expressing cloned human β3-AR
Format: cell-based
Conditions: for EC50: CHO cells stably expressing cloned human β3-adrenoceptor, cAMP release, read-out: Human β3-AR Agonism EC50; for Fold drop in potency vs. 2-chloropyridine analog: EC50 of comparative example divided by EC50 of corresponding 2-chloropyridine compound; for Human β3-AR Agonist Activity (%): percent maximum activation relative to isoproterenol

T1 sequence (P13945 whole entry): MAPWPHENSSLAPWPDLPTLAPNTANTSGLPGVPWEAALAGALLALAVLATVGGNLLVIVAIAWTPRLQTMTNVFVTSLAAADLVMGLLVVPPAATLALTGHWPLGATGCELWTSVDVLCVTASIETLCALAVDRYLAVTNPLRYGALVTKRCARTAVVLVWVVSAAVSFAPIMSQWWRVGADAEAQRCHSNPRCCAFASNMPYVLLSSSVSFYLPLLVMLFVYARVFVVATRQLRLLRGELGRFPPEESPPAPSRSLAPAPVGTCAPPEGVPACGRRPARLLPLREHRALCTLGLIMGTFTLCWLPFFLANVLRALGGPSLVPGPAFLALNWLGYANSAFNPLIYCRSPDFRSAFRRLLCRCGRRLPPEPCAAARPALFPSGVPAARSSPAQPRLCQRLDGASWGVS

Structure (SMILES) | EC50 [nM] | Fold drop in potency vs. 2-chloropyridine analog [fold] | Human β3-AR Agonist Activity (%)
CC(O)c1cncc(CN(C)C(=O)c2ccc(C[C@@H]3CC[C@H]([C@H](O)c4ccccc4)N3)cc2)c1 (stereo partly drawn) [Example 31-B, 4-(((2S,5R)-5-((R)-hydroxy(phenyl)methyl)pyrrolidin-2-yl)methyl)-N-((5-(1-hydroxyethyl)pyridin-3-yl)methyl)-N-methylbenzamide] | 16 | 2.3 | 104
CN(Cc1cccnc1)C(=O)c1ccc(C[C@@H]2CC[C@H]([C@H](O)c3cccnc3)N2)cc1 [Example 21-H, 4-(((2S,5R)-5-((R)-hydroxy(pyridin-3-yl)methyl)pyrrolidin-2-yl)methyl)-N-methyl-N-(pyridin-3-ylmethyl)benzamide] | 38 | 8.8 | 85
CN(Cc1cncc(C(C)(C)O)c1)C(=O)c1ccc(C[C@@H]2CC[C@H]([C@H](O)c3ccccc3)N2)cc1 [Example 32-B, 4-(((2S,5R)-5-((R)-hydroxy(phenyl)methyl)pyrrolidin-2-yl)methyl)-N-((5-(2-hydroxypropan-2-yl)pyridin-3-yl)methyl)-N-methylbenzamide] | 22 | 1.8 | 109
COC(C)CN(C)C(=O)c1ccc(C[C@@H]2CC[C@H]([C@H](O)c3ccc(Cl)nc3)N2)cc1 (stereo partly drawn) [Example 2-A, 4-(((2S,5R)-5-((R)-(6-chloropyridin-3-yl)(hydroxy)methyl)pyrrolidin-2-yl)methyl)-N-(2-methoxypropyl)-N-methylbenzamide] | 118 |  | 86
CN(Cc1ccc(Cl)nc1)C(=O)c1ccc(C[C@@H]2CC[C@H]([C@H](O)c3ccc(F)cc3)N2)cc1 [Example 30-F, N-((6-chloropyridin-3-yl)methyl)-4-(((2S,5R)-5-((R)-(4-fluorophenyl)(hydroxy)methyl)pyrrolidin-2-yl)methyl)-N-methylbenzamide] | 78 | 24.4 | 101
CC(=O)c1ccc([C@@H](O)[C@H]2CC[C@@H](Cc3ccc(C(=O)N(C)Cc4cccnc4)cc3)N2)cn1 [Example 21-J, 4-(((2S,5R)-5-((R)-(6-acetylpyridin-3-yl)(hydroxy)methyl)pyrrolidin-2-yl)methyl)-N-methyl-N-(pyridin-3-ylmethyl)benzamide] | ≥ 10000 | >2300 | 38
CC(c1cnccn1)N(C)C(=O)c1ccc(C[C@@H]2CC[C@H]([C@H](O)c3ccc(Cl)nc3)N2)cc1 (stereo partly drawn) [Example 41-A, 4-(((2S,5R)-5-((R)-(6-chloropyridin-3-yl)(hydroxy)methyl)pyrrolidin-2-yl)methyl)-N-methyl-N-(1-(pyrazin-2-yl)ethyl)benzamide] | 2 |  | 98
CN(Cc1cncc(C#N)c1)C(=O)c1ccc(C[C@@H]2CC[C@H]([C@H](O)c3ccc(Cl)nc3)N2)cc1 [Example 35-A, 4-(((2S,5R)-5-((R)-(6-chloropyridin-3-yl)(hydroxy)methyl)pyrrolidin-2-yl)methyl)-N-((5-cyanopyridin-3-yl)methyl)-N-methylbenzamide] | 17 |  | 91
C[C@H](c1nn(C)c(=O)o1)N(C)C(=O)c1ccc(C[C@@H]2CC[C@H]([C@H](O)c3ccc(Cl)cc3)N2)cc1 [Example 18-G, 4-(((2S,5R)-5-((R)-(4-chlorophenyl)(hydroxy)methyl)pyrrolidin-2-yl)methyl)-N-methyl-N—((R)-1-(4-methyl-5-oxo-4,5-dihydro-1,3,4-oxadiazol-2-yl)ethyl)benzamide] | 13 | 1.7 | 101
CN(Cc1n[nH]c2c1CCCC2)C(=O)c1ccc(C[C@@H]2CC[C@H]([C@H](O)c3cccnc3)N2)cc1 [Example 14-H, 4-(((2S,5R)-5-((R)-hydroxy(pyridin-3-yl)methyl)pyrrolidin-2-yl)methyl)-N-methyl-N-((4,5,6,7-tetrahydro-1H-indazol-3-yl)methyl)benzamide] | 55 | 19.5 | 101
CN(Cc1cc(C(F)(F)F)[nH]n1)C(=O)c1ccc(C[C@@H]2CC[C@H]([C@H](O)c3cccnc3)N2)cc1 [Example 10-H, 4-(((2S,5R)-5-((R)-hydroxy(pyridin-3-yl)methyl)pyrrolidin-2-yl)methyl)-N-methyl-N-((5-(trifluoromethyl)-1H-pyrazol-3-yl)methyl)benzamide] | 22 | 13.9 | 98
CN(Cc1cccc(=O)[nH]1)C(=O)c1ccc(C[C@@H]2CC[C@H]([C@H](O)c3ccc(Cl)cc3)N2)cc1 [Example 20-G] | 6 | 4.5 | 99
CN(Cc1cccnc1)C(=O)c1ccc(C[C@@H]2CC[C@H]([C@H](O)c3ccc(Cl)nc3)N2)cc1 [Example 21-A, 4-(((2S,5R)-5-((R)-(6-chloropyridin-3-yl)(hydroxy)methyl)pyrrolidin-2-yl)methyl)-N-methyl-N-(pyridin-3-ylmethyl)benzamide] | 4 |  | 102
C[C@H](c1nn(C)c(=O)o1)N(C)C(=O)c1ccc(C[C@@H]2CC[C@H]([C@H](O)c3ccccc3)N2)cc1 [Example 18-B, 4-(((2S,5R)-5-((R)-hydroxy(phenyl)methyl)pyrrolidin-2-yl)methyl)-N-methyl-N—((R)-1-(4-methyl-5-oxo-4,5-dihydro-1,3,4-oxadiazol-2-yl)ethyl)benzamide] | 68 | 8.6 | 105
CCc1[nH]nc(CN(C)C(=O)c2ccc(C[C@@H]3CC[C@H]([C@H](O)c4ccccc4)N3)cc2)c1C [Example 12-B, N-((5-ethyl-4-methyl-1H-pyrazol-3-yl)methyl)-4-(((2S,5R)-5-((R)-hydroxy (phenyl)methyl)pyrrolidin-2-yl)methyl)-N-methylbenzamide] | 18 | 1.5 | 120
CN(Cc1cnccn1)C(=O)c1ccc(C[C@@H]2CC[C@H]([C@H](O)c3ccccc3)N2)cc1 [Example 40-B, 4-(((2S,5R)-5-((R)-hydroxy(phenyl)methyl)pyrrolidin-2-yl)methyl)-N-methyl-N-(pyrazin-2-ylmethyl)benzamide] | 17 | 1.5 | 99
COCc1cc(CN(C)C(=O)c2ccc(C[C@@H]3CC[C@H]([C@H](O)c4ccc(OC(F)F)cc4)N3)cc2)n[nH]1 [Example 9-E, 4-(((2S,5R)-5-((R)-(4-(difluoromethoxy)phenyl)(hydroxy)methyl)pyrrolidin-2-yl)methyl)-N-((5-(methoxymethyl)-1H-pyrazol-3-yl)methyl)-N-methylbenzamide] | 108 | 39.6 | 76
COCCN(C)C(=O)c1ccc(C[C@@H]2CC[C@H]([C@H](O)c3ccccc3)N2)cc1 [Example 1-B, 4-(((2S,5R)-5-((R)-hydroxy(phenyl)methyl)pyrrolidin-2-yl)methyl)-N-(2-methoxyethyl)-N-methylbenzamide] | 443 | 4.6 | 93
CN(Cc1nc2ccccc2c(=O)n1C)C(=O)c1ccc(C[C@@H]2CC[C@H]([C@H](O)c3ccccc3)N2)cc1 [Example 45-B, 4-(((2S,5R)-5-((R)-hydroxy(phenyl)methyl)pyrrolidin-2-yl)methyl)-N-methyl-N-((3-methyl-4-oxo-3,4-dihydroquinazolin-2-yl)methyl)benzamide] | 65 | 2.6 | 81
Cc1cc(CN(C)C(=O)c2ccc(C[C@@H]3CC[C@H]([C@H](O)c4cncc(F)c4)N3)cc2)[nH]n1 [Example 4-R, 4-(((2S,5R)-5-((R)-(5-fluoropyridin-3-yl)(hydroxy)methyl)pyrrolidin-2-yl)methyl)-N-methyl-N-((5-methyl-1H-pyrazol-3-yl)methyl)benzamide] | 45 | 8.3 | 101
CN(Cc1cccnc1)C(=O)c1ccc(C[C@@H]2CC[C@H]([C@H](O)c3ccc(N)nc3)N2)cc1 [Example 21-M, 4-(((2S,5R)-5-((R)-(6-aminopyridin-3-yl)(hydroxy)methyl)pyrrolidin-2-yl)methyl)-N-methyl-N-(pyridin-3-ylmethyl)benzamide] | 20 | 4.7 | 97
Cc1nnc2ccc(CN(C)C(=O)c3ccc(C[C@@H]4CC[C@H]([C@H](O)c5ccccc5)N4)cc3)cn12 [Example 43-B, 4-(((2S,5R)-5-((R)-hydroxy(phenyl)methyl)pyrrolidin-2-yl)methyl)-N-methyl-N-((3-methyl-[1,2,4]triazolo[4,3-a]pyridin-6-yl)methyl)benzamide] | 1620 | <0.12 | 79
CN(Cc1ccc(=O)[nH]c1)C(=O)c1ccc(C[C@@H]2CC[C@H]([C@H](O)c3cccc(F)c3)N2)cc1 [Example 28-C, 4-(((2S,5R)-5-((R)-(3-fluorophenyl)(hydroxy)methyl)pyrrolidin-2-yl)methyl)-N-methyl-N-((6-oxo-1,6-dihydropyridin-3-yl)methyl)benzamide] | 816 | 4.7 | 78
Cc1[nH]nc(CN(C)C(=O)c2ccc(C[C@@H]3CC[C@H]([C@H](O)c4ccc(Cl)nc4)N3)cc2)c1Cl [Example 17-A, N-((4-chloro-5-methyl-1H-pyrazol-3-yl)methyl)-4-(((2S,5R)-5-((R)-(6-chloropyridin-3-yl)(hydroxy)methyl)pyrrolidin-2-yl)methyl)-N-methylbenzamide] | 4 |  | 94
